Earlier results in EP3808777A1, “STABLE LIQUID ANTIBODY FORMULATIONS” (Glenmark Specialty S.A., priority 2019, dated 2021).

| pKa values | effective buffering range (pH range) | SMILES |
| --- | --- | --- |
| 9.06 | – | NCCCC[C@H](N)C(=O)O [Lysine] |
| 1.82 | – | N=C(N)NCCC[C@H](N)C(=O)O [Arginine] |
| – | 5.5-7.4 | N[C@@H](Cc1c[nH]cn1)C(=O)O [L-hisitidine] |
